# Measured values taken from PMC9322451 (Clinical Pharmacology in Drug Development, 2022).
# Experiments:
# CYP2B6 [1] = test system: CYP2B6; design: method as in unpublished data; conditions: ref unpublished data; cited from earlier work
# CYP2B6 [2] = test system: CYP2B6; design: method as in unpublished data; conditions: ref unpublished data, read-out: half maximal inhibitory concentration; cited from earlier work
# P‐glycoprotein (P‐gp) = test system: P‐glycoprotein (P‐gp); design: method as in unpublished data; conditions: ref unpublished data; cited from earlier work
# [3] = design: method as in unpublished data; conditions: healthy adults; ref unpublished data; cited from earlier work
# neutrophil elastase [4] = conditions: 10 and 25 mg, patients with non–cystic fibrosis bronchiectasis, WILLOW study; cited from earlier work
# CYP2C19 = test system: CYP2C19; design: method as in unpublished data; conditions: ref unpublished data; cited from earlier work
# CYP3A4 = test system: CYP3A4; design: method as in unpublished data; conditions: ref unpublished data; cited from earlier work
# neutrophil elastase [5] = test system: neutrophil elastase; design: method as in PMID 29484635; conditions: cited from earlier work
# [6] = Phase 1 part A: safety (TEAEs); type: in vivo, human; conditions: for Any TEAE / Headache (TEAE) / Nasopharyngitis (TEAE) / SAE / Severe TEAE / Skin exfoliation (TEAE) / TEAE leading to death / TEAE leading to discontinuation: Part A
# Method: The study was conducted sequentially in 2 parts. […] Eligible participants were admitted to the clinical unit for single‐dose evaluation from days −2 to 2 and from days 29 to 31 for steady‐state PK and safety evaluation. Participants self‐administered daily doses after an overnight fast of at least 10 hours on days 4 to 30, with outpatient visits on days 3, 4, 7, 14, 21, 32, 33, and 61 (Figure S1). […] Dosing of the 40‐mg group commenced when the safety of 25 mg was deemed acceptable by both the investigator and the sponsor's (Insmed Incorporated, Bridgewater, New Jersey) medical monitor.
# Safety was assessed from the signing of informed consent until the end of study and included the following variables: treatment‐emergent adverse events (TEAEs), serious adverse events (SAEs), clinical laboratory tests (clinical chemistry, hematology, coagulation [part A only], and urinalysis), vital signs, 12‐lead ECG, primary Holter monitoring, and physical examinations (including evaluation of teeth and gingiva, and evaluation of palms and soles). Because of the mechanism of action of brensocatib, findings of hyperkeratosis, periodontitis/gingivitis, and other infections were reported as adverse events of special interest (AESIs). Renal function (part A only) was monitored by measuring serum creatinine and blood urea nitrogen, performing routine urinalysis, and measuring neutrophil gelatinase–associated lipocalin and cystatin.
# Adverse events (AEs) observed before the first dosing were recorded as medical history. All medical history and AEs were coded using the Medical Dictionary for Regulatory Activities (version 21.1 or higher). A TEAE was defined as an AE that began or worsened in severity after at least 1 dose of study drug was administered. All AEs experienced by a participant were monitored until the event had resolved, any abnormal laboratory values returned to baseline or stabilized, a satisfactory explanation for the changes was identified, or the participant was lost to follow‐up.
# [7] = test system: organic anion transporting polypeptides; design: method as in unpublished data; conditions: ref unpublished data, read-out: half maximal inhibitory concentration; cited from earlier work
# [8] = test system: organic anion and cation transporters; design: method as in unpublished data; conditions: ref unpublished data, read-out: half maximal inhibitory concentration; cited from earlier work
# [9] = test system: breast cancer resistance protein; design: method as in unpublished data; conditions: ref unpublished data, read-out: half maximal inhibitory concentration; cited from earlier work
smiles,measurement,setting,value
Cn1c(=O)oc2ccc(-c3ccc(C[C@@H](C#N)NC(=O)[C@@H]4CNCCCO4)cc3)cc21 [Brensocatib],CYP induction (significant inducer or not),CYP2B6 [1],not a significant
same,IC50,CYP2B6 [2],> 30 µM
same,substrate status,P‐glycoprotein (P‐gp),substrate
same,excreted in urine as unchanged,[3],≈ 20%
same,effect on neutrophil elastase and clinical outcomes,neutrophil elastase [4],reduced neutrophil elastase and improved clinical outcomes
same,CYP inhibition,CYP2C19,no effect
same,CYP induction (significant inducer or not),CYP3A4,not a significant
same,inhibition of the activity of neutrophil elastase in blood,neutrophil elastase [5],exposure‐dependent
same,Any TEAE,"[6]; 10 mg, Japanese (n=8)",3 (37.5) n (%)
same,Headache (TEAE),"[6]; 10 mg, Japanese (n=8)",0 n (%)
same,Nasopharyngitis (TEAE),"[6]; 10 mg, Japanese (n=8)",0 n (%)
same,SAE,"[6]; 10 mg, Japanese (n=8)",0 n (%)
same,Severe TEAE,"[6]; 10 mg, Japanese (n=8)",0 n (%)
same,Skin exfoliation (TEAE),"[6]; 10 mg, Japanese (n=8)",1 (12.5) n (%)
same,TEAE leading to death,"[6]; 10 mg, Japanese (n=8)",0 n (%)
same,TEAE leading to discontinuation,"[6]; 10 mg, Japanese (n=8)",0 n (%)
same,Any TEAE,"[6]; 10 mg, White (n=8)",6 (75.0) n (%)
same,Headache (TEAE),"[6]; 10 mg, White (n=8)",1 (12.5) n (%)
same,Nasopharyngitis (TEAE),"[6]; 10 mg, White (n=8)",2 (25.0) n (%)
same,SAE,"[6]; 10 mg, White (n=8)",0 n (%)
same,Severe TEAE,"[6]; 10 mg, White (n=8)",0 n (%)
same,Skin exfoliation (TEAE),"[6]; 10 mg, White (n=8)",0 n (%)
same,TEAE leading to death,"[6]; 10 mg, White (n=8)",0 n (%)
same,TEAE leading to discontinuation,"[6]; 10 mg, White (n=8)",0 n (%)
same,Any TEAE,"[6]; 25 mg, Japanese (n=9)",5 (55.6) n (%)
same,Headache (TEAE),"[6]; 25 mg, Japanese (n=9)",3 (33.3) n (%)
same,Nasopharyngitis (TEAE),"[6]; 25 mg, Japanese (n=9)",0 n (%)
same,SAE,"[6]; 25 mg, Japanese (n=9)",0 n (%)
same,Severe TEAE,"[6]; 25 mg, Japanese (n=9)",0 n (%)
same,Skin exfoliation (TEAE),"[6]; 25 mg, Japanese (n=9)",2 (22.2) n (%)
same,TEAE leading to death,"[6]; 25 mg, Japanese (n=9)",0 n (%)
same,TEAE leading to discontinuation,"[6]; 25 mg, Japanese (n=9)",0 n (%)
same,Any TEAE,"[6]; 25 mg, White (n=8)",5 (62.5) n (%)
same,Headache (TEAE),"[6]; 25 mg, White (n=8)",1 (12.5) n (%)
same,Nasopharyngitis (TEAE),"[6]; 25 mg, White (n=8)",0 n (%)
same,SAE,"[6]; 25 mg, White (n=8)",0 n (%)
same,Severe TEAE,"[6]; 25 mg, White (n=8)",0 n (%)
same,Skin exfoliation (TEAE),"[6]; 25 mg, White (n=8)",1 (12.5) n (%)
same,TEAE leading to death,"[6]; 25 mg, White (n=8)",0 n (%)
same,TEAE leading to discontinuation,"[6]; 25 mg, White (n=8)",0 n (%)
same,Any TEAE,"[6]; 40 mg, Japanese (n=8)",3 (37.5) n (%)
same,Headache (TEAE),"[6]; 40 mg, Japanese (n=8)",0 n (%)
same,Nasopharyngitis (TEAE),"[6]; 40 mg, Japanese (n=8)",0 n (%)
same,SAE,"[6]; 40 mg, Japanese (n=8)",0 n (%)
same,Severe TEAE,"[6]; 40 mg, Japanese (n=8)",0 n (%)
same,Skin exfoliation (TEAE),"[6]; 40 mg, Japanese (n=8)",0 n (%)
same,TEAE leading to death,"[6]; 40 mg, Japanese (n=8)",0 n (%)
same,TEAE leading to discontinuation,"[6]; 40 mg, Japanese (n=8)",1 (12.5) n (%)
same,Any TEAE,"[6]; 40 mg, White (n=8)",5 (62.5) n (%)
same,Headache (TEAE),"[6]; 40 mg, White (n=8)",2 (25.0) n (%)
same,Nasopharyngitis (TEAE),"[6]; 40 mg, White (n=8)",0 n (%)
same,SAE,"[6]; 40 mg, White (n=8)",0 n (%)
same,Severe TEAE,"[6]; 40 mg, White (n=8)",0 n (%)
same,Skin exfoliation (TEAE),"[6]; 40 mg, White (n=8)",1 (12.5) n (%)
same,TEAE leading to death,"[6]; 40 mg, White (n=8)",0 n (%)
same,TEAE leading to discontinuation,"[6]; 40 mg, White (n=8)",0 n (%)
same,Any TEAE,[6]; pooled brensocatib (N=49),27 (55.1) n (%)
same,Headache (TEAE),[6]; pooled brensocatib (N=49),7 (14.3) n (%)
same,Nasopharyngitis (TEAE),[6]; pooled brensocatib (N=49),2 (4.1) n (%)
same,SAE,[6]; pooled brensocatib (N=49),0 n (%)
same,Severe TEAE,[6]; pooled brensocatib (N=49),0 n (%)
same,Skin exfoliation (TEAE),[6]; pooled brensocatib (N=49),5 (10.2) n (%)
same,TEAE leading to death,[6]; pooled brensocatib (N=49),0 n (%)
same,TEAE leading to discontinuation,[6]; pooled brensocatib (N=49),1 (2.0) n (%)
same,Renal toxicity assessments,[6]; part A,no signs of acute kidney injury
same,participants treated with brensocatib who experienced ≥1 TEAE,[6]; part A,55.1%
same,"AESIs (hyperkeratosis, periodontitis/gingivitis, other infections)",[6]; parts A and B,None of these AESIs were evident
same,"SAEs, severe TEAEs, deaths during the study",[6]; parts A and B,"No SAEs, severe TEAEs, or deaths occurred"
same,tolerability,"[6]; single and multiple administration 10, 25, and 40 mg for 28 days, healthy Japanese and White participants",well tolerated
same,IC50,[7],> 11 µM
same,IC50,[8],> 11 µM
same,IC50,[9],> 11 µM
